Measurements from PubChem BioAssay (NCI).
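Briefly, cells in 96-well plates were exposed to five compound concentrations for 48 h, and endpoints were estimated by linear interpolation. Here, GI50 denotes the concentration required for 50% inhibition of growth. The concentration for full growth arrest is given as TGI.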

Key:
Test in all cases: growth of human tumour cells (NCI), 48 h
[1] = test system: 786-0 renal
[2] = test system: A498 renal
[3] = test system: A549 NSCLC
[4] = test system: BT-549 breast
[5] = test system: CAKI-1 renal
[6] = test system: CCRF-CEM leukemia
[7] = test system: COLO 205 colon
[8] = test system: DU-145 prostate
[9] = test system: EKVX NSCLC
[10] = test system: HCC-2998 colon
[11] = test system: HCT-116 colon
[12] = test system: HCT-15 colon
[13] = test system: HL-60(TB) leukemia
[14] = test system: HOP-62 NSCLC
[15] = test system: HOP-92 NSCLC
[16] = test system: HS 578T breast
[17] = test system: HT29 colon
[18] = test system: IGROV1 ovarian
[19] = test system: K-562 leukemia
[20] = test system: KM12 colon
[21] = test system: M14 melanoma
[22] = test system: MALME-3M melanoma
[23] = test system: MCF7 breast
[24] = test system: MDA-MB-231 breast
[25] = test system: MDA-MB-435
[26] = test system: MOLT-4 leukemia
[27] = test system: NCI-H226 lung
[28] = test system: NCI-H23 lung
[29] = test system: NCI-H460 lung
[30] = test system: NCI-H522 lung
[31] = test system: NCI/ADR-RES ovarian
[32] = test system: OVCAR-3 ovarian
[33] = test system: OVCAR-4 ovarian
[34] = test system: OVCAR-5 ovarian
[35] = test system: OVCAR-8 ovarian
[36] = test system: PC-3 prostate
[37] = test system: RPMI-8226 leukemia
[38] = test system: RXF 393 renal
[39] = test system: SF-268 CNS
[40] = test system: SF-295 CNS
[41] = test system: SF-539 CNS
[42] = test system: SK-MEL-2 melanoma
[43] = test system: SK-MEL-28 melanoma
[44] = test system: SK-MEL-5 melanoma
[45] = test system: SK-OV-3 ovarian
[46] = test system: SN12C renal
[47] = test system: SNB-19 CNS
[48] = test system: SNB-75 CNS
[49] = test system: SR leukemia
[50] = test system: SW-620 colon
[51] = test system: T-47D breast
[52] = test system: TK-10 renal
[53] = test system: U251 CNS
[54] = test system: UACC-257 melanoma
[55] = test system: UACC-62 melanoma
[56] = test system: UO-31 renal
[57] = test system: ACHN renal
[58] = test system: LOX IMVI melanoma

## COC(=O)[C@H](Cc1ccccc1)NC(=O)[C@@H](OC)[C@@H]1Cc2cc3cc(OC4CC(OC5CC(O)C(O)C(C)O5)C(O)C(C)O4)c(C)c(O)c3c(O)c2C(=O)[C@H]1OC1CC(OC2CC(OC3CC(C)(O)C(O)C(C)O3)C(O)C(C)O2)C(O)C(C)O1 (stereo partly specified)
[1]
  GI50: 0.0188 µM
  TGI: > 14.3 µM
[2]
  GI50: 0.024 µM
  TGI: 0.0626 µM
[3]
  GI50: 0.0532 µM
  TGI: > 14.3 µM
[4]
  GI50: 0.00713 µM
  TGI: 0.0574 µM
[5]
  GI50: 0.0416 µM
  TGI: > 14.3 µM
[6]
  GI50: 0.0137 µM
  TGI: > 14.3 µM
[7]
  GI50: 0.0182 µM
  TGI: 0.0682 µM
[8]
  GI50: 0.0286 µM
  TGI: > 14.3 µM
[9]
  GI50: 0.0393 µM
  TGI: > 14.3 µM
[10]
  GI50: 0.0158 µM
  TGI: 0.0478 µM
[11]
  GI50: 0.00587 µM
  TGI: > 14.3 µM
[12]
  GI50: 0.0725 µM
  TGI: > 14.3 µM
[13]
  GI50: 0.0336 µM
  TGI: 0.649 µM
[14]
  GI50: 0.0147 µM
  TGI: 11.4 µM
[15]
  GI50: 0.00451 µM
  TGI: 0.202 µM
[16]
  GI50: 0.0131 µM
  TGI: 0.348 µM
[17]
  GI50: 0.0268 µM
  TGI: > 14.3 µM
[18]
  GI50: 0.00902 µM
  TGI: > 14.3 µM
[19]
  GI50: 0.0312 µM
  TGI: > 14.3 µM
[20]
  GI50: 0.0148 µM
  TGI: 0.12 µM
[21]
  GI50: 0.0267 µM
  TGI: 0.105 µM
[22]
  GI50: 0.00693 µM
  TGI: 0.0287 µM
[23]
  GI50: 0.00534 µM
  TGI: 0.241 µM
[24]
  GI50: 0.0305 µM
  TGI: 9.09 µM
[25]
  GI50: 0.0182 µM
  TGI: 0.0642 µM
[26]
  GI50: 0.017 µM
  TGI: 0.161 µM
[27]
  GI50: 0.018 µM
  TGI: 0.0741 µM
[28]
  GI50: 0.0106 µM
  TGI: 0.0821 µM
[29]
  GI50: 0.0197 µM
  TGI: > 14.3 µM
[30]
  GI50: 0.0064 µM
  TGI: 1.72 µM
[31]
  GI50: 4.22 µM
  TGI: > 14.3 µM
[32]
  GI50: 0.0142 µM
  TGI: 0.0793 µM
[33]
  GI50: 0.0277 µM
  TGI: > 14.3 µM
[34]
  GI50: 0.0396 µM
  TGI: > 14.3 µM
[35]
  GI50: 0.0108 µM
  TGI: > 14.3 µM
[36]
  GI50: 0.0215 µM
  TGI: 0.429 µM
[37]
  GI50: 0.0109 µM
  TGI: 0.073 µM
[38]
  GI50: 0.0046 µM
  TGI: 0.0252 µM
[39]
  GI50: 0.0298 µM
  TGI: 2.24 µM
[40]
  GI50: 0.025 µM
  TGI: 1.7 µM
[41]
  GI50: 0.0088 µM
  TGI: 0.065 µM
[42]
  GI50: 0.0173 µM
  TGI: 0.0707 µM
[43]
  GI50: 0.00578 µM
  TGI: 0.0368 µM
[44]
  GI50: 0.00691 µM
  TGI: 0.0357 µM
[45]
  GI50: 0.0509 µM
  TGI: > 14.3 µM
[46]
  GI50: 0.00991 µM
  TGI: > 14.3 µM
[47]
  GI50: 0.0173 µM
  TGI: > 14.3 µM
[48]
  GI50: 0.0186 µM
  TGI: 0.0575 µM
[49]
  GI50: 0.00736 µM
  TGI: 1.04 µM
[50]
  GI50: 0.0196 µM
  TGI: > 14.3 µM
[51]
  GI50: 0.019 µM
  TGI: > 14.3 µM
[52]
  GI50: 0.0439 µM
  TGI: > 14.3 µM
[53]
  GI50: 0.0257 µM
  TGI: > 14.3 µM
[54]
  GI50: 0.0103 µM
  TGI: 2.54 µM
[55]
  GI50: 0.00473 µM
  TGI: 0.0209 µM
[56]
  GI50: 0.0343 µM
  TGI: 0.332 µM

## C=C1CO[C@@H]2C[C@@H]1CCC1(C)OC1CC/C(C)=C/CC[C@@]2(C)O (stereo partly specified)
[1]
  GI50: > 20.3 µM
  TGI: > 53.5 µM
[2]
  GI50: > 79.1 µM
  TGI: > 100 µM
[3]
  GI50: 17 µM
  TGI: 34.9 µM
[57]
  GI50: 16.7 µM
  TGI: 31.4 µM
[4]
  GI50: 26.4 µM
  TGI: 61.5 µM
[5]
  GI50: 20 µM
  TGI: 44 µM
[6]
  GI50: 15.1 µM
  TGI: 38.1 µM
[7]
  GI50: 34.4 µM
  TGI: > 87.2 µM
[8]
  GI50: 16.1 µM
  TGI: 31.2 µM
[9]
  GI50: 18.7 µM
  TGI: 43.9 µM
[10]
  GI50: 43.1 µM
  TGI: > 84 µM
[11]
  GI50: 15.7 µM
  TGI: 31.2 µM
[12]
  GI50: 35.8 µM
  TGI: > 87 µM
[14]
  GI50: > 58.2 µM
  TGI: > 100 µM
[15]
  GI50: 36.4 µM
  TGI: > 100 µM
[16]
  GI50: 27.1 µM
  TGI: > 79.8 µM
[17]
  GI50: 24.5 µM
  TGI: > 71 µM
[18]
  GI50: 16.3 µM
  TGI: 32 µM
[19]
  GI50: 0.302 µM
  TGI: 7.02 µM
[20]
  GI50: 17.7 µM
  TGI: 42 µM
[58]
  GI50: 7.55 µM
  TGI: 21.4 µM
[21]
  GI50: 44.1 µM
  TGI: > 100 µM
[22]
  GI50: 48.8 µM
  TGI: > 100 µM
[23]
  GI50: 24.7 µM
  TGI: > 60.6 µM
[24]
  GI50: 14.9 µM
  TGI: 36.1 µM
[25]
  GI50: 18.5 µM
  TGI: 42.2 µM
[26]
  GI50: 17.1 µM
  TGI: 39.1 µM
[27]
  GI50: > 100 µM
  TGI: > 100 µM
[28]
  GI50: 27.8 µM
  TGI: > 73 µM
[29]
  GI50: 13.9 µM
  TGI: 30.7 µM
[30]
  GI50: 30.5 µM
  TGI: > 76.9 µM
[31]
  GI50: 32.3 µM
  TGI: > 67.4 µM
[32]
  GI50: 16.9 µM
  TGI: 33 µM
[33]
  GI50: 20.9 µM
  TGI: 59.6 µM
[34]
  GI50: > 100 µM
  TGI: > 100 µM
[35]
  GI50: 39.8 µM
  TGI: > 100 µM
[36]
  GI50: 18.5 µM
  TGI: 36.9 µM
[37]
  GI50: 16.2 µM
  TGI: 44.5 µM
[38]
  GI50: 23.6 µM
  TGI: 64.1 µM
[39]
  GI50: 48.6 µM
  TGI: > 100 µM
[40]
  GI50: 18.4 µM
  TGI: 44.7 µM
[41]
  GI50: 16.1 µM
  TGI: 31.3 µM
[42]
  GI50: 43.2 µM
  TGI: > 84.6 µM
[43]
  GI50: > 89.6 µM
  TGI: > 100 µM
[44]
  GI50: 15.4 µM
  TGI: 29.4 µM
[45]
  GI50: > 100 µM
  TGI: > 100 µM
[46]
  GI50: 25.6 µM
  TGI: 67.8 µM
[47]
  GI50: > 85.9 µM
  TGI: > 100 µM
[48]
  GI50: 21.7 µM
  TGI: 97.4 µM
[49]
  GI50: 1.29 µM
  TGI: 2.72 µM
[50]
  GI50: 15.8 µM
  TGI: 38.4 µM
[51]
  GI50: 26.7 µM
  TGI: > 69.2 µM
[52]
  GI50: > 100 µM
  TGI: > 100 µM
[53]
  GI50: 37.6 µM
  TGI: > 74.2 µM
[54]
  GI50: 44.7 µM
  TGI: > 100 µM
[55]
  GI50: 28.2 µM
  TGI: > 71.2 µM
[56]
  GI50: 15.1 µM
  TGI: 29.5 µM
